Experimental data published in ChEMBL document CHEMBL5727102, “Compounds and methods for inhibiting Cif virulence factor” (2019).

Test: Biochemical Characterization of Cif Inhibitors: The first step in characterizing the two compounds identified by high throughput screening was to verify that the inhibition was reproducible using fresh preparations. Chemical libraries are often stored for extended periods of time, which can lead to breakdown products contributing to the assay outcome. While the inhibition observed with a fresh …

**Q.** Which IC50 does the source give for `NC(Cc1cc(I)c(Oc2cc(I)c(O)c(I)c2)c(I)c1)C(=O)O` (stereo unspecified) [THYROXINE] here?
**A.** > 100 µM
